Reference: a melting point compilation (Tetko et al.; mined from patent text by program, amines drawn as free bases though some values may be those of a salt)

melting point [°C] | Structure (SMILES)
165 to 167 | CC(=O)N1CCN(CC2CN=C(c3cc4cc(OCCCS(C)(=O)=O)cc(N(C)S(=O)(=O)c5ccccn5)c4[nH]3)S2)CC1 (stereo not drawn)
178 to 179 | COc1cc2c3c(Br)cc(OC)c(OC)c3n(S(C)(=O)=O)c2cc1OC
198 to 199 | Cc1ccc(NS(=O)(=O)c2cccs2)c2[nH]c(C3=NCCS3)cc12
144 to 145 | Cc1nsc(NC(=O)Cc2ccc3oc(CC(C)(C)C)nc3c2)c1Cl
280 to 283 | O=c1[nH]ncc2cc(Br)ccc12
75 to 77 | CC(C)(C)OC(=O)NCc1cc(N)ccc1Cl
180 | CCCc1nc(SC)c(C=O)n1Cc1ccc(-c2ccccc2S(=O)(=O)NC(=O)NCc2ccccc2)cc1
> 300 | Cn1cc(C(=O)O)c2nc3ncccc3cc2c1=O
210 to 212 | COc1ccnc2[nH]c(CO)cc12
102 to 103 | CCOC(=O)CN=C(c1ccccc1)c1ccccc1NC1CCN(C)CC1
147 to 150 | CCOC(=O)c1cn(C2CC2)c2cc(F)c(F)c(N(Cc3ccccc3)C(C)=O)c2c1=O
134 to 135 | COc1ccc([C@@H]2CN(C)CC[C@@H]2NC(=O)c2ccc(Cl)c(Cl)c2)cc1OC (relative stereo)
136 to 138 | Clc1cc(Cl)c2[nH]c(-c3ccccc3)cc2c1
61 to 64 | CCCc1c(OCC(=O)OCC)ccc(C(C)=O)c1O
> 300 | Cc1cc2c(-c3cccnc3Cl)nc(O)nc2s1
135 to 136 | O=C(Cc1ccc(Cl)cc1)c1cccc(S(=O)(=O)N2CCCCCC2)c1
114 to 115 | Cc1ccc(C=O)c(OCc2ccc(OCc3nc(-c4ccccc4)oc3C)cc2)n1
250 to 251 | CC1(C)OC(=S)Nc2ccc(-c3cc(C#N)ccc3F)cc21
85.4 | O=C1CN2C(=O)N(c3cc(Cl)cc(Cl)c3)C(=O)C2(Cc2ccc(Br)cc2)C1 (stereo not drawn)
120 to 122 | CC(C)(C)OC(=O)NCCNC(=O)c1ncccc1Oc1ccc(Cl)cc1
190 to 192 | NC(=O)C1CCN(CC=Cc2ccccc2)CC1
105 to 107 | O=C(OCc1ccccc1)c1ccc(OC(=O)c2cccc(C(=O)Oc3ccc(C(=O)OCc4ccccc4)cc3)c2)cc1
176 to 178 | O=C(O)c1ccc(OCC2CC(=O)N(c3ccc(OC4CCCC4O)cc3)C2)cc1 (stereo not drawn)
214 to 217 | O=C(c1ccc2c(c1)OC(F)(F)C(=O)N2)N1CCOCC1

melting point [°C] | Structure (SMILES)
247 to 248 | COc1cc2ccnc(N3CCN(C(=O)Nc4ccc([N+](=O)[O-])cc4)CC3)c2cc1OC
92 to 105 | Cc1cccc(C(CNc2ncnc3c2ncn3C2OC(CO)C(O)C2O)c2ccccc2)c1 (stereo not drawn)
35 to 38 | c1ccc(OCCSCc2ncc(-c3ccc(OCCN4CCCCCC4)cc3)o2)cc1
75 | N#Cc1cc([N+](=O)[O-])ccc1N1CCCCC1
139 to 140 | CCCN(C(C)C)[C@H]1COc2c(F)ccc(C(N)=O)c2C1
154 to 155 | CCCCCN(CCCCC)C(=O)[C@H]1Cc2c([nH]c3ccccc23)CN1C(=O)Nc1cccc(C)c1
115 to 117 | Cc1ccc(S(=O)(=O)OC[C@H]2COc3ccc4nc(C)ccc4c3O2)cc1
53 | CCOC(=O)c1ccc(Br)cc1-c1ccc(OC)c(OC)c1
129 to 130 | O=C(CCCCN1CCCCC1)c1ccc2c(c1)Cc1cc(C(=O)CCCCN3CCCCC3)ccc1O2
75 to 78 | CCCC1(C(O)CCCN2CCC(N3Cc4ccccc4C3=O)CC2)c2ccccc2-c2ccccc21 (stereo not drawn)
173 to 174 | O=C(N[C@H](Cc1ccccc1)C(=O)O)OCc1ccc2oc(-c3ccccc3)cc2c1
54 to 56 | COC(=O)CC(C(=O)OC)c1ccccc1 (stereo not drawn)
245 to 247 | CN1CC(=O)Nc2ncccc2C1=O
138 | N#Cc1ccc(N=Nc2ccc(OCCO)c(C#N)c2)cc1
31 to 32 | C=C1CC1(c1ccc(OC)cc1)c1ccc(OC)cc1
102 to 103 | COc1ccc(CN(C(=O)C(F)(F)F)c2cc(F)cc(C#N)c2)cc1
135 to 137 | Cc1cc(-c2ccco2)ccc1C(=O)CC(=O)C(F)(F)F
89 to 90 | Cc1cc(-c2ccc(C(F)(F)F)cc2)nc2ccnn12
191 to 192 | Cc1cc(-c2ccccc2)nc(-c2cccc([N+](=O)[O-])c2)c1C(=O)O
165 to 166 | O=C1NC(=O)c2ccc(Br)cc2/C1=C/Nc1ccc(CN2CCCC2)cc1
114 to 115 | CC(=O)c1ccc(CCOc2ccc(CC3SC(=O)NC3=O)cc2)nc1 (stereo not drawn)
125 to 128 | O=C(Nc1ccccc1)C(=O)N1CCC(Cc2ccccc2)CC1
148 to 150 | CC(C)(C)OC(=O)Nc1ccccc1C1Cc2ccccc2N1C(=O)OC(C)(C)C (stereo not drawn)
207 to 208 | CC(=O)c1cc2c(s1)C(=O)c1c(C(C)=O)csc1C2=O

melting point [°C] | Structure (SMILES)
140 to 145 | CC(=CC(=O)NC(C)(C)C)OC(=O)c1cc(S(C)(=O)=O)c(Cl)cc1NCc1ccco1
66 to 68 | CC(=O)N(C)c1cccc(Sc2ccc([N+](=O)[O-])cc2)c1
194 to 196 | COC(=O)c1nc(-c2ccc(Cl)cc2F)nc(N)c1Cl
225 to 226 | CC(C)Oc1c(C(=O)Nc2nnn[nH]2)sc2c1CS(=O)CC2 (stereo not drawn)
195 to 196 | CC1(Br)C(Br)=CC(O)=C(Br)C1Br (stereo not drawn)
231 to 233 | O=C(O)C1CCCc2c(noc2-c2ccc(Cl)cc2)C1 (stereo not drawn)
52 to 53 | CC(C)(CO)OCc1nn(Cc2ccccc2)c2ccccc12
145 to 146 | O=C(Nc1ccc(C(=O)N2CCCCc3ccccc32)cc1)c1ccccc1OCCCCCCN1C(=O)c2ccccc2C1=O
156 to 157 | Nc1c(Cl)ncnc1NCCc1ccccc1
63 to 65 | C=C(CCCC(=O)N1CCC[C@@H](C(=O)OC(C)(C)C)N1)C(=O)OCC
125 to 131 | CCCCCCCCNc1c(Nc2ccc(CC(C)NC[C@H](O)COc3cccc4[nH]c5ccccc5c34)cc2)c(=O)c1=O (stereo partly drawn)
176 to 177 | CSc1ccccc1CNc1ncnc2c1sc1nc(N3CCCC3)c3c(c12)CC(C)(C)OC3
268 to 269 | Cn1c(=O)[nH]c(=O)c2c1ncn2CC(C)(C)O
45 to 48 | CC(C)(C)C(O)(Cn1cncn1)C(Cl)=CBr (stereo not drawn)
217 | CC(C)(C)C1=NN(c2ccc(C(=O)O)cc2)C(c2ccc(Cl)c(Cl)c2)C1 (stereo not drawn)
147 to 148 | Cc1cccc(C)c1CNc1cc(Br)cc2c1nc(C)n2COCc1ccccc1
108 to 110 | CCCCCCCCNC(=O)c1cnc2cccc(C)n2c1=O
185 to 188 | O=C1CCCc2c1ccc(O)c2CCc1ccccc1
220 to 222 | NC(=O)C1CCN(c2c(Br)cncc2-c2ccccc2)CC1
124 to 125 | COc1cc(Cl)c(NN)c(Cl)c1
201 to 202 | O=[N+]([O-])c1ccc(-c2nc3ccc(F)cc3s2)cc1
196 to 198 | Fc1cc2c(Nc3ccc(OCc4cccc(Cl)c4)c(Cl)c3)ncnc2cn1
111 to 115 | COc1cccc(-c2nn(Cc3oc4ccccc4c(=O)c3-c3ccccc3)c3ncnc(N)c23)c1
93 to 94 | O=[N+]([O-])c1cnccc1Oc1ccc(Cl)cc1

melting point [°C] | Structure (SMILES)
182 to 183 | COC(=O)c1ccc(Cc2cn(C)c3ccc(C=C(C)C(=O)O)cc23)c(OC)c1
70 | CCCCc1nc(SCC)c2ccccc2c1Cc1ccc(C(=O)OC)cc1
75 to 77 | CCOC(=O)c1ccc(NCCc2ccc(Cl)cc2)cc1
220 to 221 | N#CN=C(Nc1cnc(Cl)c(N)c1)NC1(c2ccccc2)CCC1
171 | CCC(C(O)c1ccc(Cl)cc1)n1ncn(-c2ccc(N3CCN(c4ccccn4)CC3)nc2)c1=O (stereo not drawn)
159 to 160 | COc1ccc(CNc2n[nH]cc2C#N)cc1OC1CCCC1
141 to 142 | CS[C@H]([C@@H](C)C(=O)O)[C@@H]1CCCN1C(=O)OC(C)(C)C
158 to 161 | CCCCCSc1ncccc1C(=O)NCCCCn1cnc2c(N)nc3ccccc3c21
110 to 114 | C=C(C)[C@@H]1CC[C@]2(C(=O)N[C@H]3C[C@@H](C(=O)N4CCCC4)C3(C)C)CC[C@]3(C)[C@H](CC[C@@H]4[C@@]5(C)CC[C@H](OC(=O)CC(C)(C)C(=O)O)C(C)(C)[C@@H]5CC[C@]43C)[C@@H]12
155 to 157 | O=c1c2c(Cl)cc(Cl)cc2n(Cc2ccccc2)c(=O)n1Cc1cccc(I)c1
248 to 254 | CCOC(=O)c1ncn2c3cccc(Cl)c3c(=O)n(C)c12
146 to 148 | CCCCn1c(=O)c2c(NC)n(C)nc2n(Cc2ccccc2)c1=O
92 to 93 | OCC(O)COc1cc(-c2cccc(Cl)c2)on1 (stereo not drawn)
97 to 99 | CC(C)CN(CC(C)C)C(=O)c1c([N+](=O)[O-])cccc1[N+](=O)[O-]
157 to 158 | CSc1nc(NCCC(C)C)c2ccnc-2[nH]1
107 | Cc1ccc(S(=O)(=O)N2[C@H](CCCc3nnn(C)n3)CC[C@@H]2c2ccc(F)cc2)cc1 (racemic)
94 to 96 | Cc1ccc(NC(=O)c2cccc(C(F)(F)F)c2)cc1-c1ccc2ncsc2c1
168 to 170 | CCCOc1ccc(S(=O)(=O)CCC)cc1C(N)=O
121 to 122 | C[C@H](NC(=O)OCc1ccccc1)C(=O)N[C@@H](Cc1ccccc1)C(=O)O
177 | CN1CCC(C2(O)c3sccc3CCn3ccnc32)CC1 (stereo not drawn)
211 to 213 | COc1ccc(-c2cc3cc(F)c(F)cc3[nH]2)cc1NS(=O)(=O)c1cccs1

Structure (SMILES) | melting point [°C]
COc1ccc2c(c1)C(=O)OC21CCN(C)CC1 | 123 to 125
CC1(C)CN(Cc2ccccc2)c2cc(Cl)cc(C(=O)NC3CN4CCC3CC4)c2O1 (stereo not drawn) | 174 to 175
CSC(=N[N+](=O)[O-])N(Cc1cnc(Cl)s1)C(C)=O | 77 to 78
CC(C)c1cccc(C(C)C)c1OCC(N)=O | 136 to 138
CCN(C(=O)C1CC1)c1cccc(-c2ccnc3c(C(=O)c4ccco4)cnn23)c1 | 182 to 184
